The subject of the assay is zygomycetes, ascomycetes and bacteria/yeast. Description: Cotton burr substrate disinfection, all contaminant types. In kind it is cell-based. To be noted: 2.5 mL Tween 80 added to each PEO concentration; Fisher's Exact Test p=0.318, 0.499, 0.448 (zygomycetes, ascomycetes, bacteria/yeast). On the procedure: Eight plant essential oils (cinnamon, clove, lemongrass, oregano, savory, spearmint, tea tree and thyme) were prepared with tap water in 600 ml Pyrex glass beakers in the following volumetric concentrations: 0.1, 0.5, 1.0, 1.5, 2.0% [v:v]. Twenty-four grams of a propriety cotton burr substrate was placed in a 25×25 cm square of tule mesh tied with a rubber band to make one bundle. Each concentration was tested in replicates of 5, by submersing each bundle in a beaker containing one of the plant essential (PEO) concentrations for three hours. Each beaker was placed under constant magnetic stirring at 300 rpm, to maintain the oil emulsion during the exposure period.
The bundle was then opened within a laminar flow hood and three pieces of cotton burrs were transferred to five Petri plates each of Potato Dextrose Agar (PDA) and Tryptic Soy Agar (TSA).
The submersion process was repeated for each PEO at the five concentrations over a period of three weeks. The number of ascomycete, zygomycete and bacteria/yeast colonies were recorded for each plate every 3 days for 15 days. […]
Example 2 followed the same procedure as Example 1, but examined the efficacy of the five selected oil concentrations at the following exposure intervals: 30, 60, and 120 minutes. This analysis determined the minimum exposure time required for microbial inhibition on cotton burr substrate. […]

In the case of `CCCCCCCC/C=C\CCCCCCCC(=O)OCCOCC(OCCO)C1OCC(OCCO)C1OCCO` (stereo not shown) [Tween 80], the “frequency of contamination on substrate treated with the surfactant versus non-treated substrate” value is “no significant difference”.

Values taken from patent publication US20120225471A1, “Method for producing a composite material” (priority 2011, published 2012).
